Source: ChEMBL document CHEMBL1777699, “Part 2: Design, synthesis and evaluation of hydroxyproline-derived α2δ ligands” (Bioorg Med Chem Lett, 2011)

How the values were obtained:
Rattus norvegicus = species on record: Rattus norvegicus; test: Unbound clearance in rat; assay type: ADME, organism-based; conditions: in vivo
[1] = Displacement of [3H]gabapentin from voltage gated calcium channel alpha2delta from pig cerebral cortex by scintillation counting; assay type: tissue-based, Sus scrofa
[2] = Lipophilicity, log D of the compound; assay type: physicochemical; conditions: octanol/water
[3] = Plasma protein binding in human; assay type: ADME, cell-free; conditions: read-out: PPB (converted)
[4] = Half life in rat; assay type: ADME, organism-based; conditions: in vivo
Canis familiaris = species on record: Canis familiaris; test: Unbound clearance in dog; assay type: ADME, organism-based, Canis lupus familiaris; conditions: in vivo
Plasma = test: Cmax in human; assay type: ADME, organism-based; conditions: in vivo
[5] = Tmax in human; assay type: ADME; conditions: plasma
[6] = Half life in human; assay type: ADME, cell-free; conditions: plasma
[7] = Half life in dog; assay type: ADME, organism-based, Canis lupus familiaris; conditions: in vivo
[8] = Drug level in rat urine after 24 hrs; assay type: ADME; conditions: read-out: Drug uptake

In the case of `O=C(O)[C@@H]1C[C@H](OCc2ccc(Cl)cc2)CN1`, the CL free (Rattus norvegicus) is reported as 26 mL/min/kg, the IC50 [1] is reported as 48 nM and the logD [2] is reported as -0.2. The fraction unbound [3] was 0.17 and the half-life [4] was 24 min.

Work on `C[C@@H](CNCC(=O)O)Oc1ccc(Cl)cc1` yielded an IC50 [1] of 523 nM.

`O=C(O)CNCCSc1ccc(Cl)cc1` showed an IC50 [1] of 195 nM.

Compound `O=C(O)CNCCOc1ccc(Cl)cc1` has an IC50 [1] of over 8000 nM.

`O=C(O)[C@@H]1C[C@H](Sc2ccc(Cl)cc2)CN1` gave an IC50 [1] of 72 nM.

For `O=C(O)[C@@H]1C[C@H](Oc2ccc(Cl)cc2)CN1`, the IC50 [1] was 32 nM.

Compound `O=C(O)[C@H]1C[C@@H](Oc2ccc(Cl)cc2)CN1` has an IC50 [1] of over 10000 nM.

Work on `Cl.O=C(O)[C@@H]1C[C@H](Oc2cccc(Cl)c2)CN1` yielded a CL free (Canis familiaris) of 49 mL/min/kg, a CL free (Rattus norvegicus) of 41 mL/min/kg and an IC50 [1] of 4 nM. The logD [2] was -0.1, the fraction unbound [3] was 0.07 and the half-life [4] was 24 min. For the same compound, the Cmax (Plasma) was 2400 nM, the Tmax [5] was 30 min and the half-life [6] was 138 min. The half-life [7] was 90 min.

For `O=C(O)[C@@H]1C[C@H](Oc2ccccc2)CN1`, the IC50 [1] was 102 nM.

`O=C(O)[C@@H]1C[C@H](Oc2ccc(Cl)cn2)CN1` gave an IC50 [1] of 399 nM.

With `O=C(O)[C@@H]1C[C@H](Oc2ccc3c(c2)OCC3)CN1` the CL free (Rattus norvegicus) was 111 mL/min/kg, the IC50 [1] was 11 nM and the logD [2] was -0.1. The fraction unbound [3] was 0.11 and the half-life [4] was 60 min.

In the case of `O=C(O)[C@@H]1C[C@H](Oc2ccc3ccccc3c2)CN1`, the IC50 [1] is reported as 30 nM.

Work on `O=C(O)[C@@H]1C[C@H](Oc2ccc(OC(F)(F)F)cc2)CN1` yielded an IC50 [1] of 1680 nM.

Work on `O=C(O)[C@@H]1C[C@H](Oc2cccc(F)c2)CN1` yielded an IC50 [1] of 17 nM.

Work on `O=C(O)[C@@H]1C[C@H](Oc2ccccc2Cl)CN1` yielded an IC50 [1] of 52 nM.

For `CCC(C)O[C@@H]1CN[C@H](C(=O)O)C1` (stereo partly drawn), the IC50 [1] was 269 nM.

For `N#Cc1ccccc1O[C@@H]1CN[C@H](C(=O)O)C1`, the IC50 [1] was over 10000 nM.

`O=C(O)[C@@H]1C[C@H](Oc2cccc(O)c2)CN1` showed an IC50 [1] of 94 nM.

For `O=C(O)[C@@H]1C[C@H](Oc2ccc(Cl)c(F)c2)CN1`, the CL free (Rattus norvegicus) was 108 mL/min/kg, the IC50 [1] was 26 nM and the logD [2] was 0.1. For the same compound, the fraction unbound [3] was 0.05 and the half-life [4] was 90 min.

Compound `O=C(O)[C@@H]1C[C@H](OCc2cccc(Cl)c2)CN1` has an IC50 [1] of 14 nM.

`O=C(O)[C@@H]1C[C@H](Sc2cccc(Cl)c2)CN1` showed a CL free (Rattus norvegicus) of 56 mL/min/kg, an IC50 [1] of 7 nM and a logD [2] of 0.3. The fraction unbound [3] was 0.16 and the half-life [4] was 18 min.

In the case of `CC(C)(C)OC(=O)[C@@H]1C[C@H](Oc2cccc(Cl)c2)CN1`, the IC50 [1] is reported as 325 nM.

With `CC(C)(C)OC(=O)N1C[C@@H](Oc2cccc(Cl)c2)C[C@H]1C(=O)O` the IC50 [1] was over 1000 nM.

Compound `CCCN1C[C@@H](Oc2cccc(Cl)c2)C[C@H]1C(=O)O` has an IC50 [1] of over 1000 nM.

With `COC(=O)[C@@H]1C[C@H](Oc2cccc(Cl)c2)CN1C(=O)OC(C)(C)C` the dose excreted at 24 h [8] was 85%.

For `C[C@@]1(C(=O)O)C[C@H](Oc2cccc(Cl)c2)CN1` (stereo in doubt; 36), the IC50 [1] was 1260 nM.

Compound `C[C@@]1(C(=O)O)C[C@H](Oc2cccc(Cl)c2)CN1` (stereo in doubt; 37) has an IC50 [1] of over 10000 nM.

For `NCC1(CC(=O)O)CCCCC1` [GABAPENTIN], the IC50 [1] was […].
